Measurements from patent publication EP0472573B1, “HERBICIDE RESISTANT MAIZE” (ZENECA LIMITED, priority 1989, dated 1990).

Assays:
Mutant 5 plants = assay: Cross-resistance testing (glasshouse dose response), Mutant 5; assay type: in vivo, Zea mays; details: pre-emergence spray, assessed after four weeks growth
Excerpt: The seeds used in this screen were populations of mixed tolerant and sensitive seed, segregating 1:1, derived from each of the heterogygous, tolerant mutants crossed with homozygous, sensitive UE95. All of the tolerant progeny are heterozygous for tolerance. Each of the mutants identified above were used except mutant 4. The controls were seed of self-pollinated UE95 which was pollinated in the same year as the tolerant lines.
One litre of compost was placed in each seed tray of dimensions 19cm x 11cm x 5cm deep and firmed down flat. Two furrows 1 cm deep were drawn in the surface of the compost in each tray and six seeds were sown in each furrow (total twelve seeds per tray). Some trays were sown with 24 seeds, in which case three furrows were made and 8 seeds sown per furrow.
In each test each tray contained either the seed of one mutant or of the UE95 control for each herbicide application rate and for the untreated control.
Five different types of ALS-inhibitor herbicides were tested on the mutants plus imazethapyr (PURSUIT) as a comparison. Four rates of each were applied; approximately 0.1x, 0.5x, 1x and 4x the estimated field rates for each herbicide. The rates are the same for mutant 3 to 10 but higher rates for chlorimuron (CLASSIC) and lower rates for chlorsulfuron (GLEAN) were applied to mutants 1 and 2.
The rates of application used in the screening tests were as follows: chlorimuron (CLASSIC) 4,20,40,160 g/Ha (mutants 1 and 2); and, 8,40,80,320 g/Ha (mutants 3 to 10); chlorsulfuron (GLEAN) 5,25,50,200 g/Ha (mutants 1 and 2); and, 1,5,10,40 g/Ha (mutants 3 to 10); imazaquin (SCEPTER) 30,150,300,1200 g/Ha; triazolopyrimidine 5,25,50,200 g/Ha; phenoxypyrimidine 10,50,100,400 g/Ha; and, imazethapyr (PURSUIT) 30,150,300,1200 g/Ha The triazolopyrimidine and phenoxypyrimidine were formulated in an adjuvant wetting agent known as JF5969 and diluted with water to make a final concentration of 10% JF5969. The remaining compounds were diluted with water only.
The spray jet and parameters were as decribed above under "SCREENING". After spraying, the seeds were covered with 0.5 litre of compost and firmed down flat (2.5cm covering) and grown under the conditions described under "SCREENING" above.
Visual assessments were made of the plants after four weeks growth. Each plant was scored on a scale of zero to 5 and the height measured from soil surface to the tallest leaf tip. The scoring scale was as follows: 0 - 0 to 10% damage (little or no herbicidal effect) 1 - 11 to 25% damage 2 - 26 to 50% damage 3 - 51 to […] 4 - 81 to 95% damage 5 - 96 to 100% damage (complete death of the plant) In carrying out these assessments, plants which were obviously of the sensitive phenotype were ignored (approximately 50% of the plants). […]

[1] = test system: M1 seed of maize inbred line UE95 (sensitive plants); assay: Pre-emergence screening of M1 seed; assay type: in vivo, Zea mays
Protocol: M1 seed was sown, 100 seeds per tray, in WCB growing medium (low organic matter, 45% loam, 55% grit) and sprayed to 'run-off' using a track sprayer, with a solution of imazethapyr (PURSUIT) at a concentration calculated to be the equivalent of 250 g/ha of active ingredient . The seeds were covered with 0.5 inch of WCB and grown in the glasshouse at 25°C.
The chosen application rate was such that germination was close to 100%, but subsequently all susceptible plants were severely affected. However, after about two weeks, the initial effect of the herbicide became apparent: thin striped leaves and reduced height of only about 20% of the height of the control plants. […] Unsprayed UE95 plants were always grown in parallel with each screen as a control as it was already known that normal and M1 seedlings of UE95 are almost indistinguishable when germinated and grown to maturity without spraying.

Row | Compound | resistance group, Dose Response (Mutant 5 plants) | germination ([1]; 250 g/ha of active ingredient, pre-emergence, glasshouse at 25°C) | effect on sensitive plants ([1]; 250 g/ha, after three to four weeks) | reduced height ([1]; 250 g/ha, susceptible plants, after about two weeks)
1 | CC(C)C1(C)N=C(c2nc3ccccc3cc2C(=O)O)NC1=O (stereo not shown) [Imazaquin, imazaquin] | Intermediate | – | – | –
2 | COc1cc(Cl)nc(NC(=O)NS(=O)(=O)c2ccccc2C(=O)O)n1 [Chlorimuron, chlorimuron] | Zero | – | – | –
3 | COc1nc(C)nc(NC(=O)NS(=O)(=O)c2ccccc2Cl)n1 [Chlorsulfuron, chlorsulfuron] | Weak | – | – | –
4 | CCc1cnc(C2=NC(=O)C(C)(C(C)C)N2)c(C(=O)O)c1 (stereo not shown) [Imazethapyr, 5-ethyl-2-(5-iso-propyl-5-methyl-4-oxo-2-imidazolin-2-yl) nicotinic acid] | Strong | ~100% | almost all the sensitive plants were completely dead | about 20 % of the height of the control plants
